Tested on: Hedgehog signaling pathway
Test: Gli-Luc luciferase reporter gene assay in C3H10T1/2/Gli-Luc cells under Shh-N stimulation
Format: cell-based
Conditions: 24 h, luciferase RLU, read-out: biological activity: IC50 of the inhibitory activities of compounds on the hedgehog pathway
Outline: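 IC50 derived by curve fitting of luciferase RLU against log compound concentration. Stable C3H10T1/2/Gli-Luc cells, seeded overnight, were co-treated 24 h with serially diluted compound (7 points, duplicate wells) and 30 nM Shh-N-containing HEK293 conditioned medium before lysis and luminescence readout.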

| SMILES | IC50 [nM] |
| --- | --- |
| CCC(=O)N1[C@H](C)CN(c2ccc(NC(=O)c3cnc4c(-c5ccc(C#N)cc5)cccc4c3C3CC3)cn2)C[C@@H]1C [Embodiment 246] | ≤ 50 |
| COc1c(-c2cnc(N3C[C@@H](C)O[C@@H](C)C3)cn2)cnc2c(-c3ccc(C#N)cc3)cccc12 [Embodiment 177] | ≤ 50 |

Same assay, conditions: Mus musculus, C3H 10T1/2, 24 h, luciferase RLU, read-out: biological activity: IC50 of the inhibitory activities of compounds on the hedgehog pathway

| SMILES | IC50 [nM] |
| --- | --- |
| Cc1cn(-c2ccc(N3C[C@@H](C)O[C@@H](C)C3)cc2)c(=O)c2cccc(-c3ccccc3)c12 [Embodiment 57] | 500 to 1000 |
| COc1c(N2CCN(c3ccc(C(C)(C)O)c(C(F)(F)F)n3)CC2)cnc2c(-c3ccc(C#N)cc3)cccc12 [Embodiment 222] | ≤ 50 |
| Cc1cn(-c2ccc(N3C[C@@H](C)O[C@@H](C)C3)cc2)c(=O)c2cccc(-c3ccc(C#N)cc3)c12 [Embodiment 52] | 100 to 500 |
| COc1c(NC(=O)c2ccc(N3C[C@@H](C)O[C@@H](C)C3)nc2)cnc2c(-c3ccc(C#N)cc3)cccc12 [Embodiment 241, N-(8-(4-cyanophenyl)-4-methoxyquinolin-3-yl)-6-(2,6-dimethylmorpholino-4-yl) nicotinamide] | 100 to 500 |
| Cc1cn(-c2ccc(N3CC(C)N(c4nccs4)C(C)C3)cc2)c(=O)c2cccc(-c3ccc(C#N)cc3)c12 (stereo not drawn) [Embodiment 38] | ≤ 50 |
| Cc1cn(-c2ccc(N3CCN4CCCC4C3)cc2)c(=O)c2cccc(-c3ccc(C#N)cc3)c12 (stereo not drawn) [Embodiment 11] | 100 to 500 |
| COc1c(N2CCC(N3CCCC3)CC2)cnc2c(-c3ccc(C#N)cc3)cccc12 [Embodiment 268, 4-(4-methoxy-3-(4-(pyrrolidin-1-yl)piperidin-1-yl)quinolin-8-yl)benzonitrile] | 100 to 500 |
| COc1c(-c2ccc(N3CC(C)(C)C(O)C(C)(C)C3)cc2)cnc2c(-c3ccc(C#N)cc3)cccc12 [Embodiment 251] | ≤ 50 |
| C[C@@H]1CN(c2ccc(-n3ccc4c(-c5ccc(C#N)cc5)cccc4c3=O)cc2Cl)C[C@H](C)O1 [Embodiment 77, 4-(2-(3-chloro-4-((2S,6R)-2,6-dimethylmorpholino)phenyl)-1-oxo-1,2-dihydroisoquinolin-5-yl)benzonitrile] | 500 to 1000 |
| COc1c(-c2ccc(N3C[C@@H](C)O[C@@H](C)C3)nc2)cnc2c(-c3ccnn3C)cccc12 [Embodiment 165] | 100 to 500 |
| Cc1cn(-c2ccc(N3C[C@@H](C)O[C@@H](C)C3)cc2)c(=O)c2cccc(-c3ccc(C#N)s3)c12 [Embodiment 44] | 500 to 1000 |
| C[C@@H]1CN([C@@H]2CCN(c3cnc4c(-c5ccc(C#N)cc5)cccc4c3C3CC3)C[C@@H]2F)C[C@H](C)O1 [Embodiment 269, 4-(4-cyclopropyl-3-((3S,4R)-4-((2S,6R)-2,6-dimethylmorpholino)-3-fluoropiperidin-1-yl)quinolin-8-yl)benzonitrile] | ≤ 50 |
| Cc1cn(-c2ccc(N3C[C@@H](C)N(C(=O)c4ccccc4)[C@H](C)C3)cc2)c(=O)c2cccc(-c3ccc(C#N)cc3)c12 [Embodiment 14, 4-(2-(4-((3R,5R)-4-benzoyl-3,5-dimethylpiperazin-1-yl)phenyl)-4-methyl-1-oxo-1,2-dihydroisoquinolin-5-yl)benzonitrile] | 50 to 100 |
| Cc1cn(-c2ccc(N3CC(C)N(C)C(C)C3)cc2)c(=O)c2cccc(-c3ccc(C#N)cc3)c12 (stereo not drawn) [Embodiment 33, 4-(4-methyl-1-oxo-2-(4-(3,4,5-trimethylpiperazin-1-yl)phenyl)-1,2-dihydroisoquinolin-5-yl)benzonitrile] | 100 to 500 |
| COc1c(-c2ccc(N3C[C@@H](C)N(C(=O)C(C)N)[C@@H](C)C3)nc2)cnc2c(-c3ccc(C#N)cc3)cccc12 (stereo partly drawn) [Embodiment 199] | 100 to 500 |
| COc1c(-c2ccc(N3C[C@@H](C)O[C@@H](C)C3)cc2)cnc2c(-c3ccc(C#N)cc3C)cccc12 [Embodiment 105] | ≤ 50 |
| COc1c(C2CCC(N3C[C@@H](C)O[C@@H](C)C3)CC2)cnc2c(-c3ccc(C#N)cc3)cccc12 (stereo partly drawn) [Embodiment 232, 4-(3-(4-(2,6-dimethylmorpholino-4-yl)cyclohexyl)-4-methoxyquinolin-8-yl) benzonitrile] | 100 to 500 |
| COc1c(N2CCC(N3C[C@@H](C)O[C@@H](C)C3)C2)cnc2c(-c3ccc(C#N)cc3)cccc12 (stereo partly drawn) [Embodiment 229, 4-(3-(3-(2,6-dimethylmorpholino)pyrrolidin-1-yl)-4-methoxyquinolin-8-yl) benzonitrile] | 100 to 500 |
| CCOc1c(-c2ccc(N3C[C@@H](C)O[C@@H](C)C3)cc2)cnc2c(-c3ccc(C#N)cc3)cccc12 [Embodiment 143, 4-(3-(4-((2S,6R)-2,6-dimethylmorpholino)phenyl)-4-ethoxyquinolin-8-yl)benzonitrile] | ≤ 50 |
| COc1c(-c2ccc(N3C[C@@H](C)O[C@@H](C)C3)nc2)cnc2c(-c3ccc(C)nc3)cccc12 [Embodiment 163] | 100 to 500 |
| CNC(=O)N1C(C)CN(c2ccc(-n3cc(C)c4c(-c5ccc(C#N)cc5)cccc4c3=O)cc2)CC1C (stereo not drawn) [Embodiment 30] | 100 to 500 |
| C[C@@H]1CN(c2ccc(-c3c([O-])c4cccc(-c5ccc(C#N)cc5)c4n[n+]3C)cc2)C[C@H](C)O1 [Embodiment 150, 8-(4-cyanophenyl)-3-(4-((2R,6S)-2,6-dimethylmorpholino)phenyl)-2-methylcinnolin-2-ium-4-olate] | 500 to 1000 |

| SMILES | IC50 [nM] |
| --- | --- |
| COc1c(-c2ccc(N3C[C@@H](C)O[C@@H](C)C3)cc2)cnc2c(-c3ccc(C#N)cc3)ccc(F)c12 [Embodiment 138] | ≤ 50 |
| Cc1cn(-c2ccc(N3CCN(c4nsc5ccccc45)CC3)cc2)c(=O)c2cccc(-c3ccc(C#N)cc3)c12 [Embodiment 13] | 100 to 500 |
| C[C@H]1CN(c2ccc(-c3cnc4c(-c5ccc(C#N)cc5)cccc4c3C3CC3)cn2)C[C@H](C)O1 [Embodiment 266, 4-(4-cyclopropyl-3-(6-((2S,6S)-2,6-dimethylmorpholino)pyridin-3-yl)quinolin-8-yl) benzonitrile] | ≤ 50 |
| C[C@@H]1CN(c2ccc(-c3cnc4c(-c5ccc(C#N)cc5)cccc4c3)cc2)C[C@H](C)O1 [Embodiment 127, 4-(3-(4-((2S,6R)-2,6-dimethylmorpholino)phenyl)quinolin-8-yl)benzonitrile] | 100 to 500 |
| COc1c(-c2ccc(N3C[C@@H](C)O[C@@H](C)C3)nc2)cnc2c(NC(=O)C(C)(C)C)cccc12 [Embodiment 117, N-(3-(6-((2S,6R)-2,6-dimethylmorpholino)pyridin-3-yl)-4-methoxyquinolin-8-yl) pivalamide] | 1000 to 5000 |
| COc1c(-c2ccc(N3C[C@@H](C)O[C@@H](C)C3)cc2)cnc2c(-c3ccc(S(C)(=O)=O)cc3Cl)cccc12 [Embodiment 103] | 50 to 100 |
| COc1c(N2CCN(C(=O)CC(C)(C)O)CC2)cnc2c(-c3ccc(C#N)cc3)cccc12 [Embodiment 214] | ≤ 50 |
| Cc1cn(-c2ccc(N3CC(C)(C)C(O)C(C)(C)C3)cc2)c(=O)c2cccc(-c3ccc(C#N)cc3)c12 [Embodiment 39, 4-(2-(4-(4-hydroxy-3,3,5,5-tetramethylpiperidin-1-yl)phenyl)-4-methyl-1-oxo-1,2-dihydroisoquinolin-5-yl)benzonitrile] | ≤ 50 |
| CC(C)(O)c1ccc(N2CCN(c3cnc4c(-c5ccc(C#N)cc5)cccc4c3C(F)(F)F)CC2)nc1 [Embodiment 218, 4-(3-(4-(5-(2-hydroxypropan-2-yl)pyridin-2-yl)piperazin-1-yl)-4-(trifluoromethyl)quinolin-8-yl)benzonitrile] | ≤ 50 |
| COc1c(-c2ccc(N3CC(C)N(C(C)=O)C(C(C)(C)O)C3)cc2)cnc2c(-c3ccc(C#N)cc3)cccc12 (stereo not drawn) [Embodiment 191, 4-(3-(4-(4-acetyl-3-(2-hydroxypropan-2-yl)-5-methylpiperazin-1-yl)phenyl)-4-methoxyquinolin-8-yl)benzonitrile] | ≤ 50 |
| COc1c(-c2ccc(N3C[C@@H](C)O[C@@H](C)C3)cc2)cnc2c(-c3ccc(C#N)c(F)c3)cccc12 [Embodiment 102] | 50 to 100 |
| Cc1cn(-c2ccc(N3C[C@@H](C)O[C@@H](C)C3)cc2)c(=O)c2ccnc(-c3ccc(C#N)s3)c12 [Embodiment 84] | 1000 to 5000 |
| COc1c(-c2ccc(C(=O)N3C[C@@H](C)O[C@@H](C)C3)s2)cnc2c(-c3ccc(C#N)cc3)cccc12 [Embodiment 178, 4-(3-(5-((2S,6R)-2,6-dimethylmorpholine-4-carbonyl)thiophen-2-yl)-4-methoxyquinolin-8-yl)benzonitrile] | 100 to 500 |
| COc1c(N2CCC(N3CC(C)OC(C)C3=O)CC2)cnc2c(-c3ccc(C#N)cc3)cccc12 (stereo not drawn) [Embodiment 235, 4-(3-(4-(2,6-dimethyl-3-oxo-morpholino-4-yl)piperidin-1-yl)-4-methoxyquinolin-8-yl) benzonitrile] | ≤ 50 |
| C[C@@H]1CN(c2ccc(-c3cnc4c(-c5ccc(C#N)cc5)cccc4c3N3CCC3)cn2)C[C@H](C)O1 [Embodiment 139, 4-(4-(azetidin-1-yl)-3-(6-((2S,6R)-2,6-dimethylmorpholino)pyridin-3-yl)quinolin-8-yl) benzonitrile] | 50 to 100 |
| Cc1cn(-c2ccc(N3CCOC(C)(C)C3)cc2)c(=O)c2cccc(-c3ccc(C#N)cc3)c12 [Embodiment 4] | 100 to 500 |
| COc1ccc(-c2cccc3c(OC)c(-c4ccc(N5C[C@@H](C)O[C@@H](C)C5)cc4)cnc23)cn1 [Embodiment 100] | 100 to 500 |
| Cc1cn(-c2ccc(N3C[C@@H](C)O[C@@H](C)C3)nc2)c(=O)c2cccc(-c3ccc(OC(F)(F)F)cc3)c12 [Embodiment 68] | 1000 to 5000 |
| Cc1cn(-c2ccc(N3CC(C)N(C(=O)C(C)(C)C)C(C)C3)cc2)c(=O)c2cccc(-c3ccc(C#N)cc3)c12 (stereo not drawn) [Embodiment 25] | 50 to 100 |
| COc1c(-c2ccc(N3C[C@@H](C)N(c4nccs4)[C@@H](C)C3)nc2)cnc2c(-c3ccc(C#N)cc3)cccc12 [Embodiment 206, 4-(3-(6-((3S,5R)-3,5-dimethyl-4-(thiazol-2-yl)piperazin-1-yl)pyridin-3-yl)-4-methoxyquinolin-8-yl)benzonitrile] | ≤ 50 |
| COc1c(N2CCN(C(C)=O)CC2)cnc2c(-c3ccc(C#N)cc3)cccc12 [Embodiment 215] | 100 to 500 |

Reference: US9938292B2 (GUANGDONG ZHONGSHENG PHARMACEUTICAL CO., LTD, priority 2014, dated 2018)
